Legend:
PI3Kγ (p120γ) = target: T1, PI3Kγ (p120γ) (Homo sapiens, UniProt P48736); assay: Inhibition of PI3K kinase activity (ADP Glo), PI3Kγ; conditions: Table 2, p120γ, read-out: biochemical potency (PI3Kγ IC50)
T1 construct: purchased Promega V1761
Procedure, shortened: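 IC50 values come from a 4-parameter nonlinear fit of ADP-Glo luminescence, which measures ADP produced as PIP2 is phosphorylated to PIP3. The p120γ enzyme (2× stock 8 nM) sat with compound 1 h at rt before substrate (2× stocks: 50 μM ATP, 0.1 mg/ml PIP2) was added. Phosphorylation then proceeded 60 min at rt.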

PI3Kγ = target: T2, PI3Kγ (Homo sapiens, UniProt P48736); assay: PI3Kγ cellular assay in THP-1 cells (AKT pS473 AlphaLISA); assay type: cell-based; conditions: Table 2, rhMCP-1 stimulated AKT pS473, read-out: cellular potency (PI3Kγ IC50)
T2 construct: host or cells: THP-1
T2 sequence (P48736 whole entry): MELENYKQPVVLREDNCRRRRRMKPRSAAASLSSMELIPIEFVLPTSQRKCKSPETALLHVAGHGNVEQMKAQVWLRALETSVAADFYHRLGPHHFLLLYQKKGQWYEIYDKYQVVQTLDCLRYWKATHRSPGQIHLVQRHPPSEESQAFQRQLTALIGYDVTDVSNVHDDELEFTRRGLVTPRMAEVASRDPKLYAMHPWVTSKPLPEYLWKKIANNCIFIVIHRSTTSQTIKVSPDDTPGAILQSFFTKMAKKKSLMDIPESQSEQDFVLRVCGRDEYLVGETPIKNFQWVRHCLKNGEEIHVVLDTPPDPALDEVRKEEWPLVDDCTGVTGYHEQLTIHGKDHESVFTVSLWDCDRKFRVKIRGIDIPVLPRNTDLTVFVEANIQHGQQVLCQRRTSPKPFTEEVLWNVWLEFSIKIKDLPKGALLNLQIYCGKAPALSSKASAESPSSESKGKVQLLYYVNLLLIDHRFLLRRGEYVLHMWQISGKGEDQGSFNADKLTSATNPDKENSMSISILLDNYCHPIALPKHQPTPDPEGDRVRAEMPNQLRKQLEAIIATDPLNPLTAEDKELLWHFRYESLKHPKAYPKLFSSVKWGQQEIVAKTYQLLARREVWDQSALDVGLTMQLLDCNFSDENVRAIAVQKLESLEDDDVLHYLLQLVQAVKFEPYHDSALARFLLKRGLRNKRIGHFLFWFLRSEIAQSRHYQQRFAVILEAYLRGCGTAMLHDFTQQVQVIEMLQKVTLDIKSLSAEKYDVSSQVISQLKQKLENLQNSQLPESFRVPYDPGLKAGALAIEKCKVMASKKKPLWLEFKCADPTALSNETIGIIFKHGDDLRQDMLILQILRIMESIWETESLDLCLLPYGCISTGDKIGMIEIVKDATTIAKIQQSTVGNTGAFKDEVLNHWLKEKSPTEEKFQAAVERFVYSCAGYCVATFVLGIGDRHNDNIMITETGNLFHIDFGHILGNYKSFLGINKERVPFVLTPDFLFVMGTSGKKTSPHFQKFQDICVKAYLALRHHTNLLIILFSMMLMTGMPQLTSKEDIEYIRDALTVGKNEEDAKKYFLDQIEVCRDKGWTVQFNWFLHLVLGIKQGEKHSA
Procedure, shortened: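 Endogenous AKT S473 phosphorylation, detected by AlphaLISA in lysates, serves as the PI3Kγ activity read-out in stimulated, serum-starved THP-1 cells (1.8×10^5/well).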

T1 sequence (P48736 whole entry): as above

SMILES: Cc1cc(-c2ccn3nc(N)c(C(=O)NCc4cnn(C)c4)c3n2)cc2c1C(=O)N([C@@H](C)C1CC1)C2 [Example 214]
- IC50 (PI3Kγ (p120γ)): < 0.1 µM
- IC50 (PI3Kγ): 0.1 to 1 µM

SMILES: Cc1cc(-c2ccn3nc(N)c(C(=O)NC[C@H]4C[C@@H](O)C4)c3n2)cc2c1C(=O)N([C@@H](C)C1CC1)C2 [Example 215]
- IC50 (PI3Kγ (p120γ)): < 0.1 µM
- IC50 (PI3Kγ): 0.1 to 1 µM

SMILES: CNC(=O)c1c(N)nn2ccc(-c3cc(C)c4c(c3)CN([C@@H](C)C3CC3)C4=O)nc12 [Example 216]
- IC50 (PI3Kγ (p120γ)): < 0.1 µM
- IC50 (PI3Kγ): 0.1 to 1 µM

SMILES: Cc1cc(-c2ccn3nc(N)c(C(=O)N[C@@H](C)c4ccccn4)c3n2)cc2c1C(=O)N([C@@H](C)C1CC1)C2 [Example 217]
- IC50 (PI3Kγ (p120γ)): < 0.1 µM
- IC50 (PI3Kγ): 0.1 to 1 µM

SMILES: Cc1cc(-c2ccn3nc(N)c(C(=O)N[C@@H]4CCNC4)c3n2)cc2c1C(=O)N([C@@H](C)C1CC1)C2 [Example 218]
- IC50 (PI3Kγ (p120γ)): < 0.1 µM
- IC50 (PI3Kγ): 0.1 to 1 µM

SMILES: Cc1cc(-c2ccn3nc(N)c(C(=O)N[C@H](C)c4ccncc4)c3n2)cc2c1C(=O)N([C@@H](C)C1CC1)C2 [Example 219]
- IC50 (PI3Kγ (p120γ)): < 0.1 µM
- IC50 (PI3Kγ): 0.1 to 1 µM

SMILES: Cc1cc(-c2ccn3nc(N)c(C(=O)N[C@@H](C)C4CC4)c3n2)cc2c1C(=O)N([C@@H](C)C1CC1)C2 [Example 220]
- IC50 (PI3Kγ (p120γ)): < 0.1 µM
- IC50 (PI3Kγ): 0.1 to 1 µM

SMILES: Cc1cc(-c2ccn3nc(N)c(C(=O)N[C@@H](C)CO)c3n2)cc2c1C(=O)N([C@@H](C)C1CC1)C2 [Example 221]
- IC50 (PI3Kγ (p120γ)): < 0.1 µM
- IC50 (PI3Kγ): 0.1 to 1 µM

SMILES: Cc1cc(-c2ccn3nc(N)c(C(=O)NCC(F)(F)F)c3n2)cc2c1C(=O)N([C@@H](C)C1CC1)C2 [Example 222]
- IC50 (PI3Kγ (p120γ)): < 0.1 µM
- IC50 (PI3Kγ): 0.1 to 1 µM

SMILES: Cc1cc(-c2ccn3nc(N)c(C(=O)NC(C)(C)CO)c3n2)cc2c1C(=O)N([C@@H](C)C1CC1)C2 [Example 223]
- IC50 (PI3Kγ (p120γ)): < 0.1 µM
- IC50 (PI3Kγ): 0.1 to 1 µM

SMILES: Cc1cc(-c2ccn3nc(N)c(C(=O)NC(C)C(N)=O)c3n2)cc2c1C(=O)N([C@@H](C)C1CC1)C2 (stereo partly shown) [Example 224]
- IC50 (PI3Kγ (p120γ)): < 0.1 µM
- IC50 (PI3Kγ): 0.1 to 1 µM

SMILES: Cc1cc(-c2ccn3nc(N)c(C(=O)N[C@H]4CCNC4=O)c3n2)cc2c1C(=O)N([C@@H](C)C1CC1)C2 [Example 225]
- IC50 (PI3Kγ (p120γ)): < 0.1 µM
- IC50 (PI3Kγ): 0.1 to 1 µM

SMILES: Cc1cc(-c2ccn3nc(N)c(C(=O)NCC4COC4)c3n2)cc2c1C(=O)N([C@@H](C)C1CC1)C2 [Example 226]
- IC50 (PI3Kγ (p120γ)): < 0.1 µM
- IC50 (PI3Kγ): 0.1 to 1 µM

SMILES: Cc1cc(-c2ccn3nc(N)c(C(=O)NC[C@@H](C)O)c3n2)cc2c1C(=O)N([C@@H](C)C1CC1)C2 [Example 227]
- IC50 (PI3Kγ (p120γ)): < 0.1 µM
- IC50 (PI3Kγ): 0.1 to 1 µM

SMILES: Cc1cc(-c2ccn3nc(N)c(C(=O)NC4(CCO)CC4)c3n2)cc2c1C(=O)N([C@@H](C)C1CC1)C2 [Example 228]
- IC50 (PI3Kγ (p120γ)): < 0.1 µM
- IC50 (PI3Kγ): 0.1 to 1 µM

SMILES: Cc1cc(-c2ccn3nc(N)c(C(=O)N[C@@H]4CCCC[C@H]4O)c3n2)cc2c1C(=O)N([C@@H](C)C1CC1)C2 [Example 229]
- IC50 (PI3Kγ (p120γ)): < 0.1 µM
- IC50 (PI3Kγ): 0.1 to 1 µM

SMILES: Cc1cc(-c2ccn3nc(N)c(C(=O)N[C@H](C)CN)c3n2)cc2c1C(=O)N([C@@H](C)C1CC1)C2 [Example 230]
- IC50 (PI3Kγ (p120γ)): < 0.1 µM
- IC50 (PI3Kγ): 0.1 to 1 µM

SMILES: Cc1cc(-c2ccn3nc(N)c(C(=O)N[C@@H]4CCCNC4)c3n2)cc2c1C(=O)N([C@@H](C)C1CC1)C2 [Example 231]
- IC50 (PI3Kγ (p120γ)): < 0.1 µM
- IC50 (PI3Kγ): 0.1 to 1 µM

SMILES: Cc1cc(-c2ccn3nc(N)c(C(=O)N[C@H]4CCNC4)c3n2)cc2c1C(=O)N([C@@H](C)C1CC1)C2 [Example 232]
- IC50 (PI3Kγ (p120γ)): < 0.1 µM
- IC50 (PI3Kγ): 0.1 to 1 µM

SMILES: CCNC(=O)c1c(N)nn2ccc(-c3cc(C)c4c(c3)CN([C@@H](C)C3CC3)C4=O)nc12 [Example 233]
- IC50 (PI3Kγ (p120γ)): < 0.1 µM
- IC50 (PI3Kγ): 0.1 to 1 µM

SMILES: Cc1cc(-c2ccn3nc(N)c(C(=O)NC[C@H](C)O)c3n2)cc2c1C(=O)N([C@@H](C)C1CC1)C2 [Example 234]
- IC50 (PI3Kγ (p120γ)): < 0.1 µM
- IC50 (PI3Kγ): 0.1 to 1 µM

SMILES: Cc1cc(-c2ccn3nc(N)c(C(=O)N[C@@H](C)c4cnn(C)c4)c3n2)cc2c1C(=O)N([C@@H](C)C1CC1)C2 [Example 235]
- IC50 (PI3Kγ (p120γ)): < 0.1 µM
- IC50 (PI3Kγ): 0.1 to 1 µM

SMILES: Cc1cc(-c2ccn3nc(N)c(C(=O)NCC(N)=O)c3n2)cc2c1C(=O)N([C@@H](C)C1CC1)C2 [Example 236]
- IC50 (PI3Kγ (p120γ)): < 0.1 µM
- IC50 (PI3Kγ): 0.1 to 1 µM

SMILES: Cc1cc(-c2ccn3nc(N)c(C(=O)N[C@@H](CO)C(C)(C)C)c3n2)cc2c1C(=O)N([C@@H](C)C1CC1)C2 [Example 237]
- IC50 (PI3Kγ (p120γ)): < 0.1 µM
- IC50 (PI3Kγ): 0.1 to 1 µM

SMILES: Cc1cc(-c2ccn3nc(N)c(C(=O)NC[C@@H]4CCOC4)c3n2)cc2c1C(=O)N([C@@H](C)C1CC1)C2 [Example 238]
- IC50 (PI3Kγ (p120γ)): < 0.1 µM
- IC50 (PI3Kγ): 0.1 to 1 µM

SMILES: Cc1cc(-c2ccn3nc(N)c(C(=O)N[C@H]4CC[C@@H](O)C4)c3n2)cc2c1C(=O)N([C@@H](C)C1CC1)C2 [Example 239]
- IC50 (PI3Kγ (p120γ)): < 0.1 µM
- IC50 (PI3Kγ): 0.1 to 1 µM

Source: patent publication US20230024302A1, “2,3,5-TRISUBSTITUTED PYRAZOLO[1,5-A]PYRIMIDINE COMPOUNDS” (Arcus Biosciences, Inc., priority 2019, published 2023)
